Measurements from patent US20240400553A1, “AMINE BASED MATRIPTASE 2 INHIBITORS AND USES THEREOF” (Disc Medicine, Inc., priority 2023, published 2024).

target: T1, Human Recombinant Matriptase 2 (Homo sapiens, UniProt Q8IU80); assay: Matriptase 2 inhibition, fluorescence based assay (Method I); format: biochemical; settings: Table A; Ki of Matriptase-2; read-out: Mat-2 Ki
T1 construct: made in house
T1 sequence (Q8IU80 1-811): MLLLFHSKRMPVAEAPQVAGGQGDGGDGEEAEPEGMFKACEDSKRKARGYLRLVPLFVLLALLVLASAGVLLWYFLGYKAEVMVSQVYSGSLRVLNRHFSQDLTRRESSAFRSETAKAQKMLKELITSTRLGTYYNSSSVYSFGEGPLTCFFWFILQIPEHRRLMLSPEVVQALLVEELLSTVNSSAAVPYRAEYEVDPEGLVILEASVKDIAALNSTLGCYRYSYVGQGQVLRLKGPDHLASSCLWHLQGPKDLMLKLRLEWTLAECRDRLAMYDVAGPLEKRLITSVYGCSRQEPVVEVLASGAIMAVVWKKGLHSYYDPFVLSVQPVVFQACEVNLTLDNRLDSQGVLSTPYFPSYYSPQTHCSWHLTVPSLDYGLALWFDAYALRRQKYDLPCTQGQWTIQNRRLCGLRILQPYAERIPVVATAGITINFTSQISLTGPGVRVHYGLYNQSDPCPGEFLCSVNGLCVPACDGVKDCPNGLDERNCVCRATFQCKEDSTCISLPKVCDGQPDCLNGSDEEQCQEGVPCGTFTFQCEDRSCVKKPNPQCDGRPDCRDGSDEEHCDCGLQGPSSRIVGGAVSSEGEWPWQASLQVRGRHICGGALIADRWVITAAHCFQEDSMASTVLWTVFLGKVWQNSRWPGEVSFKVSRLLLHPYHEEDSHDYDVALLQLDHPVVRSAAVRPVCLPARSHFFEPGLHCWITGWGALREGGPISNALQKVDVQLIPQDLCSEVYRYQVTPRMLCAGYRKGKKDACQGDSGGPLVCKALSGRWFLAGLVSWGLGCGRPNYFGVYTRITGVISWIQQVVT
Method in brief: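 In-house recombinant enzyme (3.5 nM), preincubated 30 min with compound, then Boc-Gln-Ala-Arg-AMC substrate (62 μM) in 50 mM Tris pH 7.5, 150 mM NaCl, 0.01% gelatin, 1% DMSO, 25 °C. Fluorescence (Ex 360/Em 480 nm) read 60 min after substrate; IC50 from variable-slope sigmoidal fit of % inhibition.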

Compound | Ki [nM]
Cc1oc(=O)oc1COC(=O)c1cc2ccc(CN)nc2n1Cc1cc(NS(=O)(=O)Cc2ccsc2)cc2ccccc12 [Compound 178, (5-methyl-2-oxo-2H-1,3-dioxol-4-yl)methyl 6-(aminomethyl)-1-({3-[(thiophen-3-yl)methane-sulfonamido]naphthalen-1-yl}methyl)-1H-pyr-rolo[2,3-b]pyridine-2-carboxylate] | 100 to 500
NCc1ccc2cc(C(=O)OCCC3CCOCC3)n(Cc3cc(NS(=O)(=O)Cc4ccsc4)cc4ccccc34)c2n1 [Compound 179, 2-(oxan-4-yl)ethyl 6-(aminomethyl)-1-({3-[(thiophen-3-yl)methane-sulfonamido]naphthalen-1-yl}methyl)-1H-pyr-rolo[2,3-b]pyridine-2-carboxylate] | 100 to 500
COc1ccccc1CS(=O)(=O)Nc1cc(Cn2c(C(=O)O)cc3ccc(CN)nc32)c2ccccc2c1 [Compound 180, 6-(aminomethyl)-1-({3-[(2-methoxyphenyl)-methanesulfonamido]-naphthalen-1-yl}meth-yl)-1H-pyrrolo[2,3-b]-pyridine-2-carboxylic acid] | 100 to 500
CN(Cc1nccn1C)C(=O)c1cc2ccc(CN)nc2n1Cc1cc(NS(=O)(=O)Cc2ccsc2)cc2ccccc12 [Compound 181, 6-(aminomethyl)-N-methyl-N-[(1-methyl-1H-imidazol-2-yl)meth-yl]-1-({3-{(thiophen-3-yl)methanesulfonamido]-naphthalen-1-yl}methyl)-1H-pyrrolo[2,3-b]pyr-idine-2-carboxamide] | 100 to 500
Cc1cccc(C)c1CS(=O)(=O)Nc1cc(Cn2c(C(=O)OCC3CCN(C)CC3)cc3ccc(CN)nc32)c2ccccc2c1 [Compound 188, (1-methylpiperidin-4-yl)methyl 6-(aminometh-yl)-1-({3-[(2,6-dimethyl-phenyl)methanesulfon-amido]naphthalen-1-yl}-methyl)-1H-pyrrolo[2,3-b]pyridine-2-carboxylate] | ≤ 100
Cc1cccc(C)c1CS(=O)(=O)Nc1cc(Cn2c(C(=O)OC[C@H]3COCCN3)cc3ccc(CN)nc32)c2ccccc2c1 [Compound 189, [(3R)-morpholin-3-yl]-methyl 6-(aminomethyl)-1-({3-[(2,6-dimethyl-phenyl)methanesulfon-amido]naphthalen-1-yl}-methyl)-1H-pyrrolo[2,3-b]pyridine-2-carboxylate] | ≤ 100
Cc1cccc(C)c1CS(=O)(=O)Nc1cc(Cn2c(C(=O)OCCCN3CCOCC3)cc3ccc(CN)nc32)c2ccccc2c1 [Compound 190, 3-(morpholin-4-yl)prop-yl 6-(aminomethyl)-1-({3-[(2,6-dimethylphen-yl)methanesulfonamido]-naphthalen-1-yl}meth-yl)-1H-pyrrolo[2,3-b]-pyridine-2-carboxylate] | ≤ 100
Cc1cccc(C)c1CS(=O)(=O)Nc1cc(Cn2c(C(=O)OCc3nccn3C)cc3ccc(CN)nc32)c2ccccc2c1 [Compound 191, (1-methyl-1H-imidazol-2-yl)methyl 6-(amino-methyl)-1-({3-[(2,6-dimethylphenyl)meth-anesulfonamido]naph-thalen-1-yl}methyl)-1H-pyrrolo[2,3-b]pyridine-2-carboxylate] | ≤ 100
COCCN1CCC(COC(=O)c2cc3ccc(CN)nc3n2Cc2cc(NS(=O)(=O)Cc3c(C)cccc3C)cc3ccccc23)CC1 [Compound 192, [1-(2-methoxyethyl)-piperidin-4-yl]methyl 6-(aminomethyl)-1-({3-[(2,6-dimethylphenyl)-methanesulfonamido]-naphthalen-1-yl}meth-yl)-1H-pyrrolo[2,3-b]-pyridine-2-carboxylate] | ≤ 100
Cc1cccc(C)c1CS(=O)(=O)Nc1cc(Cn2c(C(=O)O)cc3ccc(CN)nc32)c2ccccc2c1 [Compound 195, 6-(aminomethyl)-1-({3-[(2,6-dimethylphenyl)-methanesulfonamido]-naphthalen-1-yl}methyl)-1H-pyrrolo[2,3-b]pyr-idine-2-carboxylic acid] | ≤ 100

Results, then the compound that gave them:

Ki [nM] | Compound
≤ 100 | NCc1ccc2cc(C(=O)OC[C@H]3CNCCO3)n(Cc3cc(NS(=O)(=O)Cc4ccsc4)cc4ccccc34)c2n1 [Compound 170, [(2R)-morpholin-2-yl]-methyl 6-(aminomethyl)-1-({3-[(thiophen-3-yl)-methanesulfonamido]-naphthalen-1-yl}meth-yl)-1H-pyrrolo[2,3-b]-pyridine-2-carboxylate]
≤ 100 | CC(=O)N(C)CCOC(=O)c1cc2ccc(CN)nc2n1Cc1cc(NS(=O)(=O)Cc2ccsc2)cc2ccccc12 [Compound 171, 2-(N-methylacetamido)-ethyl 6-(aminomethyl)-1-({3-[(thiophen-3-yl)-methanesulfonamido]-naphthalen-1-yl}meth-yl)-1H-pyrrolo[2,3-b]-pyridine-2-carboxylate]
≤ 100 | NCc1ccc2cc(C(=O)NCCN3CCOCC3)n(Cc3cc(NS(=O)(=O)Cc4ccsc4)cc4ccccc34)c2n1 [Compound 173, 6-(aminomethyl)-N-[2-(morpholin-4-yl)ethyl]-1-({3-[(thiophen-3-yl)-methanesulfonamido]-naphthalen-1-yl}meth-yl)-1H-pyrrolo[2,3-b]-pyridine-2-carboxamide]
≤ 100 | CN1CCC(CCOC(=O)c2cc3ccc(CN)nc3n2Cc2cc(NS(=O)(=O)Cc3ccsc3)cc3ccccc23)CC1 [Compound 174]
≤ 100 | CNCCOC(=O)c1cc2ccc(CN)nc2n1Cc1cc(NS(=O)(=O)Cc2ccsc2)cc2ccccc12 [Compound 175, 2-(methylamino)ethyl 6-(aminomethyl)-1-({3-[(thiophen-3-yl)methane-sulfonamido]naphthalen-1-yl}methyl)-1H-pyr-rolo[2,3-b]pyridine-2-carboxylate]
≤ 100 | NCc1ccc2cc(C(=O)OCC3CCOCC3)n(Cc3cc(NS(=O)(=O)Cc4ccsc4)cc4ccccc34)c2n1 [Compound 176, (oxan-4-yl)methyl 6-(aminomethyl)-1-({3-[(thiophen-3-yl)methane-sulfonamido]naphthalen-1-yl}methyl)-1H-pyr-rolo[2,3-b]pyridine-2-carboxylate]
≤ 100 | NCc1ccc2cc(C(=O)OCCN3CCCC3)n(Cc3cc(NS(=O)(=O)Cc4ccsc4)cc4ccccc34)c2n1 [Compound 177, 2-(pyrrolidin-1-yl)ethyl 6-(aminomethyl)-1-({3-[(thiophen-3-yl)methane-sulfonamido]naphthalen-1-yl}methyl)-1H-pyr-rolo[2,3-b]pyridine-2-carboxylate]
≤ 100 | Cc1cccc(C)c1CS(=O)(=O)Nc1cc(Cn2c(C(=O)OC[C@H]3CNCCO3)cc3ccc(CN)nc32)c2ccccc2c1 [Compound 182, [(2R)-morpholin-2-yl]-methyl 6-(aminometh-yl)-1-({3-[(2,6-dimeth-ylphenyl)methanesulfon-amido]naphthalen-1-yl}-methyl)-1H-pyrrolo[2,3-b]pyridine-2-carboxylate]
≤ 100 | Cc1cccc(C)c1CS(=O)(=O)Nc1cc(Cn2c(C(=O)NCCC3CCN(C)CC3)cc3ccc(CN)nc32)c2ccccc2c1 [Compound 183, 6-(aminomethyl)-1-({3-[(2,6-dimethylphenyl)-methanesulfonamido]-naphthalen-1-yl}meth-yl)-N-[2-(1-methylpiper-idin-4-yl)ethyl]-1H-pyr-rolo[2,3-b]pyridine-2-carboxamide]
≤ 100 | Cc1cccc(C)c1CS(=O)(=O)Nc1cc(Cn2c(C(=O)NCC3CCN(C)CC3)cc3ccc(CN)nc32)c2ccccc2c1 [Compound 184, 6-(aminomethyl)-1-({3-[(2,6-dimethylphenyl)-methanesulfonamido]-naphthalen-1-yl}meth-yl)-N-[(1-methylpiper-idin-4-yl)methyl]-1H-pyrrolo[2,3-b]pyridine-2-carboxamide]
≤ 100 | Cc1cccc(C)c1CS(=O)(=O)Nc1cc(Cn2c(C(=O)OCCC3CCN(C)CC3)cc3ccc(CN)nc32)c2ccccc2c1 [Compound 185, 2-(1-methylpiperidin-4-yl)ethyl 6-(aminometh-yl)-1-({3-[(2,6-dimethyl-phenyl)methanesulfon-amido]naphthalen-1-yl}-methyl)-1H-pyrrolo[2,3-b]pyridine-2-carboxylate]
≤ 100 | Cc1cccc(C)c1CS(=O)(=O)Nc1cc(Cn2c(C(=O)OCCN3CCN(C)CC3)cc3ccc(CN)nc32)c2ccccc2c1 [Compound 186]
≤ 100 | Cc1cccc(C)c1CS(=O)(=O)Nc1cc(Cn2c(C(=O)OCc3cncn3C)cc3ccc(CN)nc32)c2ccccc2c1 [Compound 187, (1-methyl-1H-imidazol-5-yl)methyl 6-(amino-methyl)-1-({3-[(2,6-dimethylphenyl)methane-sulfonamido]naphthalen-1-yl}methyl)-1H-pyr-rolo[2,3-b]pyridine-2-carboxylate]
